Measured values: ChEMBL document CHEMBL3880403, “Diaryl ethers as opioid receptor antagonist” (2006)

Legend:
[1] = test system: Rattus norvegicus; test: Antiobesity activity in po dosed diet-induced obese rat assessed as inhibition of food consumption measured up to 24 hrs by indirect calorimetry assay; format: functional; conditions: read-out: MED
[2] = test system: Rattus norvegicus; test: Ex vivo inhibition of [3H]-Diprenophine binding to mu opioid receptor in striatum/nucleus accumbens isolated from rat treated with compound at 7 mg/kg, po for 6 hrs measured after 30 mins post [3H]-Diprenophine addition to tissue relative to control; format: functional
[3] = test system: Rattus norvegicus; test: Antiobesity activity in diet-induced obese rat assessed as energy balance at 3 mg/kg, po measured up to 24 hrs by indirect calorimetry assay; format: functional
[4] = target: Mu-type opioid receptor (Homo sapiens) (UniProt P35372); test: Antagonist activity at mu opioid receptor (unknown origin) expressed in membranes assessed as inhibition of DAMGO1-induced GTP-gamma-[35S] binding after 4 hrs by micro beta scintillation counting analysis
Mu-type opioid receptor (Homo sapiens), sequence (P35372 whole entry): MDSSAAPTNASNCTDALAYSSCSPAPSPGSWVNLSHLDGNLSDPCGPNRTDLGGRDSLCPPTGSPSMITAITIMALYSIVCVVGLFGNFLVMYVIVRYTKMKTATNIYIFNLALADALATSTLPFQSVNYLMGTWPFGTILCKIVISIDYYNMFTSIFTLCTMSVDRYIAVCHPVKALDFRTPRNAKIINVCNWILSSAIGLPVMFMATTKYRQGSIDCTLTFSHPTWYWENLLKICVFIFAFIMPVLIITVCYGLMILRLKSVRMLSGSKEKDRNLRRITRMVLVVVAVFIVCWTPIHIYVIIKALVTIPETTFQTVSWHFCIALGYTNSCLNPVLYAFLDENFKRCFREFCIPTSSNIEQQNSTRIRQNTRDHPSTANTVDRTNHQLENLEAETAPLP

[5] = test system: Rattus norvegicus; test: Ex vivo inhibition of [3H]-Diprenophine binding to kappa opioid receptor in striatum/nucleus accumbens isolated from rat treated with compound at 7 mg/kg, po for 6 hrs measured after 30 mins post [3H]-Diprenophine addition to tissue relative to control; format: functional
[6] = target: Delta-type opioid receptor (Homo sapiens) (UniProt P41143); test: Antagonist activity at delta opioid receptor (unknown origin) expressed in membranes assessed as inhibition of DPDPE-induced GTP-gamma-[35S] binding after 4 hrs by micro beta scintillation counting analysis
Delta-type opioid receptor (Homo sapiens), sequence (P41143 whole entry): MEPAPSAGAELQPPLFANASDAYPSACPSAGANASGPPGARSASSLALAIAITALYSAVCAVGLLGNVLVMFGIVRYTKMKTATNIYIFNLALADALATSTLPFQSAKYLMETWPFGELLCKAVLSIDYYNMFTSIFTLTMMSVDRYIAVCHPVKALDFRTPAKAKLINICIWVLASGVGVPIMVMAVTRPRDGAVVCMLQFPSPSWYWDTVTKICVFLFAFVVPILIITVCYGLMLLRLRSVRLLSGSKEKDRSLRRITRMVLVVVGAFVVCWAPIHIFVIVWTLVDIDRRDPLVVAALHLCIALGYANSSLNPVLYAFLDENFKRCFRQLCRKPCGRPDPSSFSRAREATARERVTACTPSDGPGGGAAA

[7] = target: Kappa-type opioid receptor (Homo sapiens) (UniProt P41145); test: Antagonist activity at kappa opioid receptor (unknown origin) expressed in membranes assessed as inhibition of U69593-induced GTP-gamma-[35S] binding after 4 hrs by micro beta scintillation counting analysis
Kappa-type opioid receptor (Homo sapiens), sequence (P41145 whole entry): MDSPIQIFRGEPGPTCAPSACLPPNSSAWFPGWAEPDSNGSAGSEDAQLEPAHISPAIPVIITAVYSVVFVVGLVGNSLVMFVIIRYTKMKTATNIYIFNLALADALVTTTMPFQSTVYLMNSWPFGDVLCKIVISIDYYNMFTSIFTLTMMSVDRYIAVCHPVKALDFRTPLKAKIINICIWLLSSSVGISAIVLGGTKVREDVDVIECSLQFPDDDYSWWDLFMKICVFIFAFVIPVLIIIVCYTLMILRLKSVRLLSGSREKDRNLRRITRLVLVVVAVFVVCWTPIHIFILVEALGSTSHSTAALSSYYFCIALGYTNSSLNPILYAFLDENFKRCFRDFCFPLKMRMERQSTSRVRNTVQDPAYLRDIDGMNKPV

[8] = test system: Rattus norvegicus; test: In vivo inhibition of opioid receptor in obese rat assessed as compound dose causing effective decrease in feeding behavior; format: functional
[9] = test system: Rattus norvegicus; test: Ex vivo inhibition of [3H]-Diprenophine binding to delta opioid receptor in striatum/nucleus accumbens isolated from rat treated with compound at 7 mg/kg, po for 6 hrs measured after 30 mins post [3H]-Diprenophine addition to tissue relative to control; format: functional

Compound | minimal effective dose [1] [mg/kg] | inhibition in vivo at 7 mg/kg [2] [%] | Activity [3] [kcal/kg/day] | Kb [4] [nM] | inhibition in vivo at 7 mg/kg [5] [%] | Kb [6] [nM] | Kb [7] [nM] | ED [8] | inhibition in vivo at 7 mg/kg [9] [%]
NC(=O)c1ccc(Oc2ccc(CNCCc3cccs3)cc2)nc1 | ≤ 3 | > 40 | -19 | 0.068 | > 40 | 0.708 | 0.355 | <=3 ug/kg | > 40
CCCCCNCc1ccc(Oc2ccc(C(N)=O)cn2)c(OC)c1 |  | 75 |  |  | 75 |  |  |  | 75
Cc1cc(CNCCC(C)(C)C)ccc1Oc1ccc(C(N)=O)cn1 |  | 59 |  |  | 59 |  |  |  | 59
NC(=O)c1ccc(Oc2ccc(CCNCc3ccccc3)cc2Cl)nc1 |  |  |  | 0.843 |  | 17.5 | 7.86 |  | 
CC(C)CCNCc1ccc(Oc2ccc(C(N)=O)cn2)c(Cl)c1 |  | 77 |  |  | 77 |  |  |  | 77
COc1cc(CNCCC(C)(C)C)ccc1Oc1ccc(C(N)=O)cn1 |  | 55 |  |  | 55 |  |  |  | 55
NC(=O)c1ccc(Oc2ccc(CCNCc3cccc(Cl)c3)cc2Cl)nc1 |  |  |  | 0.503 |  | 30.1 | 6.86 |  | 
O=C1CC[C@@]2(O)[C@H]3Cc4ccc(O)c5c4[C@@]2(CCN3CC2CC2)[C@H]1O5 [NALTREXONE] | > 10 | < 40 |  |  | < 40 |  |  |  | < 40
Cc1ccccc1CNCCc1ccc(Oc2ccc(C(N)=O)cn2)c(Cl)c1 |  |  |  | 0.281 |  | 8.9 | 3.38 |  | 
CCCCNCc1ccc(Oc2ccc(C(N)=O)cn2)c(C)c1 |  | 38 |  |  | 38 |  |  |  | 38
NC(=O)c1ccc(Oc2ccc(CNCCc3ccc(F)cc3)cc2)cc1 |  | 50 |  |  | 50 |  |  |  | 50
NC(=O)c1ccc(Oc2ccc3c(c2)CCCN(CCc2ccccc2)C3)nc1 |  | 62 |  |  | 62 |  |  |  | 62
NC(=O)c1ccc(Oc2ccc(CNCCc3cccc(F)c3)cc2)nc1 |  | 40 |  | 0.072 | 40 | 0.677 | 0.894 |  | 40
C[C@H]1CN(CC[C@H](O)C2CCCCC2)CC[C@@]1(C)c1cccc(O)c1 | 1 | > 40 | -36 |  | > 40 |  |  |  | > 40
NC(=O)c1ccc(Oc2ccc(CNCCC3CCCC3)cc2)nc1 | ≤ 3 | > 60 | -39 |  | > 60 |  |  | <=3 ug/kg | > 60
Cc1cc(CNCCC(C)C)ccc1Oc1ccc(C(N)=O)cc1F |  | 58 |  |  | 58 |  |  |  | 58
NC(=O)c1ccc(Oc2ccc(CNCCC3CCCCC3)cc2)nc1 |  | 79 |  |  | 79 |  |  |  | 79
CCCCCNCc1ccc(Oc2ccc(C(N)=O)cc2)cc1 | 3 |  | -65 |  |  |  |  | 3 mg/kg | 
CC(C)(C)CCNCc1ccc(Oc2ccc(C(N)=O)cn2)c(Cl)c1 |  | 83 |  |  | 83 |  |  |  | 83
COc1cc(CNCCc2ccccc2F)ccc1Oc1ccc(C(N)=O)cn1 |  | 54 |  |  | 54 |  |  |  | 54
Cc1cc(CNCCC(C)C)ccc1Oc1ccc(C(N)=O)cn1 | 0.3 | 55 | -68 |  | 55 |  |  | 0.3 mg/kg | 55
NC(=O)c1ccc(Oc2ccc(CCNCc3cccc(F)c3)cc2Cl)nc1 |  |  |  | 0.41 |  | 5.78 | 4.5 |  | 
CC(C)(C)CCNCc1ccc(Oc2ccc(C(N)=O)cn2)cc1 | ≤ 3 | 62 | -56 |  | 62 |  |  | <=3 ug/kg | 62
CC(C)CCNCc1ccc(Oc2ccc(C(N)=O)cn2)c(F)c1 | 0.3 | > 65 | -81 |  | > 65 |  |  | 0.3 mg/kg | > 65
CC(C)CCNCc1ccc(Oc2ccc(C(N)=O)cn2)cc1 | 0.3 | > 40 | -35 | 0.2 | > 40 | 4.4 | 0.4 | 0.3 mg/kg | > 40
CCCCCNCc1ccc(Oc2ccc(C(N)=O)nc2)c(F)c1 |  | 55 |  |  | 55 |  |  |  | 55
